Assay [1] concerns the target T1, Melanocortin receptor 5 (Homo sapiens, UniProt P33032).
Description: Binding affinity against human melanocortin receptor 5 (hMC5R) (concentration of the peptide at 50% specific binding)
In another assay the target is Melanocortin receptor 4 (Homo sapiens, UniProt P32245).
Another assay deals with Melanocortin receptor 3 (Homo sapiens, UniProt P41968).
Assay [2] deals with T1, Melanocortin receptor 5. Briefly: Signal transduction efficacy in cAMP assay in the CHO cells expressing human melanocortin receptor 5. Type of assay: functional, cell-based.
The target of assay [3] is T1, Melanocortin receptor 5. Briefly: Increase in intracellular cAMP in CHO cells expressing human melanocortin receptor 5. Type of assay: functional, cell-based.

Peptide text beside a SMILES is read from it.

Chain of Melanocortin receptor 3 (P41968 whole entry): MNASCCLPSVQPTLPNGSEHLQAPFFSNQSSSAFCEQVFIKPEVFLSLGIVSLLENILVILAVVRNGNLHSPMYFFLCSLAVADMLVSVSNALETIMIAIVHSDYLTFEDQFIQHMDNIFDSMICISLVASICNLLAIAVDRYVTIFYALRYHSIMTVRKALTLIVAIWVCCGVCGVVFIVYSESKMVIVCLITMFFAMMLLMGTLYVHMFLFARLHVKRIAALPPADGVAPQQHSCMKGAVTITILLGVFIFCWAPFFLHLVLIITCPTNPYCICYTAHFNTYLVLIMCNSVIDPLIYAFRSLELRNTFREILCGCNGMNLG
T1 sequence (P33032 whole entry): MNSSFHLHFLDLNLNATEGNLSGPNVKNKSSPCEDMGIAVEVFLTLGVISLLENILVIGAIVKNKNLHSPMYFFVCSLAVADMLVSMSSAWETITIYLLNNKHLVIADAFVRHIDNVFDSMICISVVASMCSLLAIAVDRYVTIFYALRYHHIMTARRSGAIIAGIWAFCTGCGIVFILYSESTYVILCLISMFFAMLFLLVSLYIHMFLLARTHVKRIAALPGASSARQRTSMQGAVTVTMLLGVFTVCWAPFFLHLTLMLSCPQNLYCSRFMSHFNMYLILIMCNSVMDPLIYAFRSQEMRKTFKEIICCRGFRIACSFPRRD
Chain of Melanocortin receptor 4 (P32245 whole entry): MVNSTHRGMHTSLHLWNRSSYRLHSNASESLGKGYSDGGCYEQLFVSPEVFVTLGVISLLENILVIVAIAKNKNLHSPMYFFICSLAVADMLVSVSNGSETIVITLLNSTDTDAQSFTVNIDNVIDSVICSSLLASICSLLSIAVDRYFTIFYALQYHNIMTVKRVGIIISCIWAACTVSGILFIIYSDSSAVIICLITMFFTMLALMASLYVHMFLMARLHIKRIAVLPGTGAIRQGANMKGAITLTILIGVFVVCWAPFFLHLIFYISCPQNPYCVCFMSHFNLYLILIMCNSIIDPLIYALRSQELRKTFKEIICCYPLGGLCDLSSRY
Description for Melanocortin receptor 3: Binding affinity against human melanocortin receptor 3 (hMC3R) (concentration of the peptide at 50% specific binding)
Description for Melanocortin receptor 4: Binding affinity against human melanocortin receptor 4 (hMC4R) (concentration of the peptide at 50% specific binding)

Regarding `N=C(N)NCCC[C@@H]1NC(=O)[C@@H](Cc2ccc3ccccc3c2)NCC(=O)CC[C@@H](C(N)=O)NC(=O)[C@H](Cc2c[nH]c3ccccc23)NC1=O`, the inhibitory constant (Ki) at Melanocortin receptor 5 [1] worked out at 5000 nM; at Melanocortin receptor 4, 960 nM; at Melanocortin receptor 3, 5900 nM.
Take `N=C(N)NCCC[C@@H]1NC(=O)[C@@H](Cc2ccc3ccccc3c2)NCC(=O)CC[C@H](C(N)=O)NC(=O)[C@@H](Cc2c[nH]c3ccccc23)NC1=O`: the Inhibition at 10nM on Melanocortin receptor 5 [2] was 1%.
Regarding `N=C(N)NCCC[C@@H]1NC(=O)[C@@H](Cc2ccc3ccccc3c2)NC(=O)[C@H](Cc2c[nH]cn2)NCC(=O)CC[C@@H](C(N)=O)NC(=O)[C@H](Cc2c[nH]c3ccccc23)NC1=O`, the inhibition constant (Ki) on Melanocortin receptor 5 [1] is 2400 nM; at Melanocortin receptor 4 it was 420 nM; on Melanocortin receptor 3 it was 2900 nM. Besides, the EC50 at Melanocortin receptor 5 [3] (cho) is > 5000 nM.
Consider `N=C(N)NCCC[C@@H]1NC(=O)[C@@H](Cc2ccc3ccccc3c2)NC(=O)CCC(=O)NCCCC[C@@H](C(N)=O)NC(=O)[C@H](Cc2c[nH]c3ccccc23)NC1=O`, for which the inhibitory constant (Ki) on Melanocortin receptor 5 [1] stood at 540 nM; on Melanocortin receptor 4 it was 0.5 nM; on Melanocortin receptor 3, 150 nM. Moreover, the EC50 on Melanocortin receptor 5 [3] came to 530 nM.
Consider `N=C(N)NCCC[C@@H]1NC(=O)[C@@H](Cc2ccc3ccccc3c2)NC(=O)CCC(=O)NC[C@@H](C(N)=O)NC(=O)[C@H](Cc2c[nH]c3ccccc23)NC1=O`, for which the inhibition constant (Ki) was determined as 4800 nM on Melanocortin receptor 5 [1], 110 nM on Melanocortin receptor 4 and 1500 nM at Melanocortin receptor 3. For the same compound, at Melanocortin receptor 5 [3] (cho), the EC50 is > 5000 nM.
As to `N=C(N)NCCC[C@@H]1NC(=O)[C@@H](Cc2ccc3ccccc3c2)NC(=O)CCC(=O)NCCC[C@@H](C(N)=O)NC(=O)[C@H](Cc2c[nH]c3ccccc23)NC1=O`, the figures for the Ki at Melanocortin receptor 5 [1], on Melanocortin receptor 4 and at Melanocortin receptor 3 were 130 nM, 0.37 nM and 56 nM, respectively. Moreover, the midpoint of the response at Melanocortin receptor 5 [3], the EC50, lay at 300 nM.
As for `N=C(N)NCCC[C@@H]1NC(=O)[C@@H](Cc2ccc3ccccc3c2)NC(=O)[C@H](Cc2c[nH]cn2)NC(=O)CCC(=O)NC[C@@H](C(N)=O)NC(=O)[C@H](Cc2c[nH]c3ccccc23)NC1=O`, the values for the Ki on Melanocortin receptor 5 [1], on Melanocortin receptor 4 and at Melanocortin receptor 3 were 65 nM, 0.26 nM and 29 nM, respectively. On Melanocortin receptor 5 [3], the concentration for a half-maximal effect (EC50) was determined as 210 nM.
As for `N=C(N)NCCC[C@H]1NC(=O)[C@@H](Cc2ccc3ccccc3c2)NC(=O)CCC(=O)NCCCC[C@H](C(N)=O)NC(=O)[C@@H](Cc2c[nH]c3ccccc23)NC1=O`, the values for the Ki on Melanocortin receptor 5 [1], on Melanocortin receptor 4 and at Melanocortin receptor 3 were 7000 nM, 3700 nM and 5900 nM, respectively. For the same compound, on Melanocortin receptor 5 [2], the Activation at 5 µM at 5nM was 5%.
As to `CC(=O)N[C@H]1CSSC[C@@H](C(N)=O)NC(=O)CNC(=O)[C@H](Cc2c[nH]c3ccccc23)NC(=O)[C@H](CCCN=C(N)N)NC(=O)[C@@H](Cc2ccc3ccccc3c2)NC(=O)[C@H](Cc2c[nH]cn2)NC(=O)[C@H](CCC(=O)O)NC1=O`, the inhibition constant Ki on Melanocortin receptor 5 [1] turned out to be 0.39 nM; on Melanocortin receptor 4, 0.57 nM; at Melanocortin receptor 3, 2.6 nM. Further, at Melanocortin receptor 5 [3] (cho), the half-maximal effective concentration (EC50) is 0.22 nM.
Turning to `CC(=O)N[C@H]1CC(=O)NCCCC[C@@H](C(N)=O)NC(=O)[C@H](Cc2c[nH]c3ccccc23)NC(=O)[C@H](CCCNC(=N)N)NC(=O)[C@@H](Cc2ccc3ccccc3c2)NC1=O`, the Ki on Melanocortin receptor 5 [1] is 720 nM; on Melanocortin receptor 4, 4.3 nM; at Melanocortin receptor 3, 190 nM. At Melanocortin receptor 5 [3], the EC50 is 1000 nM.
As for `N=C(N)NCCC[C@@H]1NC(=O)[C@@H](Cc2ccc3ccccc3c2)NC(=O)CCC(=O)NCCCC[C@H](C(N)=O)NC(=O)[C@@H](Cc2c[nH]c3ccccc23)NC1=O`, the Ki worked out at 4900 nM at Melanocortin receptor 5 [1], 1300 nM on Melanocortin receptor 4 and 5900 nM at Melanocortin receptor 3. Also, the Activation at 5 µM at 5nM at Melanocortin receptor 5 [2] amounted to 0%.
`CCC1CC(=O)N[C@H](Cc2ccc3ccccc3c2)C(=O)N[C@@H](CCCN=C(N)N)C(=O)N[C@@H](Cc2c[nH]c3ccccc23)C(=O)N[C@H](C(N)=O)CCCCNC1=O` (stereo in doubt; 17): the Ki on Melanocortin receptor 5 [1] amounted to 140 nM; on Melanocortin receptor 4 it was 0.58 nM; at Melanocortin receptor 3, 120 nM. In addition, on Melanocortin receptor 5 [3] (cho), the EC50 amounted to 240 nM.
In the case of `CC(=O)N[C@H]1CSSC[C@@H](C(=O)N2CCC[C@H]2C(=O)N2CCC[C@H]2C(=O)N[C@@H](CCCCN)C(=O)N[C@@H](CC(=O)O)C(N)=O)NC(=O)CNC(=O)[C@H](Cc2c[nH]c3ccccc23)NC(=O)[C@H](CCCNC(=N)N)NC(=O)[C@@H](Cc2ccc3ccccc3c2)NC(=O)[C@H](Cc2c[nH]cn2)NC(=O)[C@H](CCC(=O)O)NC1=O` (HELM PEPTIDE1{[ac].C.E.H.[O=C([C@@H](Cc1ccc2ccccc2c1)N[*:1])[*:2]].R.W.G.C.P.P.K.D.[am]}$PEPTIDE1,PEPTIDE1,2:R3-9:R3$$$V2.0), the inhibition constant Ki at Melanocortin receptor 5 [1] turned out to be 16 nM; at Melanocortin receptor 4 it was 1.5 nM; on Melanocortin receptor 3, 25 nM. The compound also displayed an EC50 at Melanocortin receptor 5 [3] of 42 nM.
For `N=C(N)NCCC[C@@H]1NC(=O)[C@@H](Cc2ccc3ccccc3c2)NC(=O)[C@H](Cc2c[nH]cn2)NC(=O)CCC(=O)NCCCC[C@@H](C(N)=O)NC(=O)[C@H](Cc2c[nH]c3ccccc23)NC1=O`, in that order: 150 nM, 0.88 nM, 47 nM and 170 nM.
Turning to `N=C(N)NCCC[C@@H]1NC(=O)[C@H](Cc2ccc3ccccc3c2)NC(=O)CCC(=O)NCC[C@H](C(N)=O)NC(=O)[C@@H](Cc2c[nH]c3ccccc23)NC1=O`, at Melanocortin receptor 5 [2], the Activation at 5 µM at 5nM is 13%.
Take `N=C(N)NCCC[C@@H]1NC(=O)[C@@H](Cc2ccc3ccccc3c2)NC(=O)[C@@H](N)CC(=O)NCCCC[C@@H](C(N)=O)NC(=O)[C@H](Cc2c[nH]c3ccccc23)NC1=O`: the Ki on Melanocortin receptor 5 [1] came out at 24 nM; on Melanocortin receptor 4 it was 4 nM; at Melanocortin receptor 3, 420 nM. Also, the EC50 at Melanocortin receptor 5 [3] is 200 nM.
As to `CCC1CC(=O)N[C@H](Cc2ccc3ccccc3c2)C(=O)N[C@@H](CCCN=C(N)N)C(=O)N[C@@H](Cc2c[nH]c3ccccc23)C(=O)N[C@H](C(N)=O)CCCCNC1=O` (stereo in doubt; 18), the Ki at Melanocortin receptor 5 [1] was found to be 400 nM; on Melanocortin receptor 4, 1.5 nM; at Melanocortin receptor 3, 240 nM. The same compound showed an EC50 at Melanocortin receptor 5 [3] (cho) of 220 nM.
For `N=C(N)NCCC[C@@H]1NC(=O)[C@@H](Cc2ccc3ccccc3c2)NC(=O)[C@H](Cc2cnc[nH]2)NC(=O)[C@@H](N)CC(=O)NCCCC[C@@H](C(N)=O)NC(=O)[C@H](Cc2c[nH]c3ccccc23)NC1=O`, the values for the inhibitory constant (Ki) on Melanocortin receptor 5 [1], on Melanocortin receptor 4 and on Melanocortin receptor 3 were 18 nM, 1.6 nM and 14 nM, respectively. The EC50 at Melanocortin receptor 5 [3] came to 18 nM.
Turning to `CC(=O)N[C@H]1CSSC[C@@H](C(=O)N2CCC[C@H]2C(=O)N2CCC[C@H]2C(=O)N[C@@H](CCCCN)C(=O)N[C@@H](CC(=O)O)C(N)=O)NC(=O)CNC(=O)[C@H](Cc2c[nH]c3ccccc23)NC(=O)[C@H](CCCN=C(N)N)NC(=O)[C@@H](Cc2ccc(Cl)c(Cl)c2)NC(=O)[C@H](Cc2c[nH]cn2)NC(=O)[C@H](CCC(=O)O)NC1=O`, the Ki on Melanocortin receptor 5 [1] was determined as 22 nM; on Melanocortin receptor 4, 2.2 nM; on Melanocortin receptor 3 it was 20 nM. The compound further displayed an EC50 at Melanocortin receptor 5 [3] of 73 nM.
Turning to `N=C(N)NCCC[C@@H]1NC(=O)[C@@H](Cc2ccc3ccccc3c2)NC(=O)CCC(=O)NCCCC[C@H](C(N)=O)NC(=O)[C@H](Cc2c[nH]c3ccccc23)NC1=O`, the values for the inhibitory constant (Ki) on Melanocortin receptor 5 [1], on Melanocortin receptor 4 and on Melanocortin receptor 3 were 4900 nM, 3800 nM and 5900 nM, respectively. On Melanocortin receptor 5 [2], this compound returned an Activation at 5 µM at 5nM of 7%.
In the case of `N=C(N)NCCC[C@@H]1NC(=O)[C@H](Cc2ccc3ccccc3c2)NC(=O)CCC(=O)NC2CCC(C(N)=O)N2C(=O)[C@@H](Cc2c[nH]c3ccccc23)NC1=O` (stereo not given in full), the figures for the Ki on Melanocortin receptor 5 [1], on Melanocortin receptor 4 and on Melanocortin receptor 3 were 2500 nM, 600 nM and 3000 nM, respectively. The same compound returned an Activation at 5 µM at 5nM at Melanocortin receptor 5 [2] of 3%.
As to `N=C(N)NCCC[C@@H]1NC(=O)[C@@H](Cc2ccc3ccccc3c2)NC(=O)CCC(=O)NCC[C@@H](C(N)=O)NC(=O)[C@H](Cc2c[nH]c3ccccc23)NC1=O`, the Ki at Melanocortin receptor 5 [1] was 2700 nM; at Melanocortin receptor 4 it was 58 nM; on Melanocortin receptor 3, 3000 nM.

The record behind these values is ChEMBL document CHEMBL1134662, “Selective, high affinity peptide antagonists of alpha-melanotropin action at human melanocortin receptor 4: their synthesis and biological evaluation in vitro” (J Med Chem, 2001).
